Values joined by “and” are separate entries in the source; they are usually repeats but may differ in a detail not shown here. Identical values can stand only once. Like-named read-outs stand apart in the source and are kept apart here.
Legend:
[1] = Pharmacokinetics and plasma concentration of Example 101 in Lewis rats after oral administration (CIA study); format: in vivo, Lewis rat; details: oral; for MRT inf: read-out: MRTInf—obs
BD 2 = BD 2 (Homo sapiens, UniProt O60885); assay: Free EC50 for BD 2, compared with plasma concentration
IL-22 = IL-22 levels by ELISA in stimulated human peripheral blood mononuclear cells; format: cell-based; details: for IC50: Homo sapiens, PBMC
Experimental: CD2, CD3, and CD28 antibody-coated beads from the T-cell activation/expansion kit (Miltenyi Biotec) were added to the PBMC at a bead-to-cell ratio of 1:2.
The mixture of PBMCs and beads were seeded into the wells of the round-bottom 96-well plate at a concentration of 2×10^5 cells/well in a total volume of 200 μL. The cells were cultured for 72 hours at 37° C. and 5% CO2 and then supernatants were collected and IL-17A and IL-22 levels were measured by ELISA. […] The final compound concentration ranged from 30,000 nM to 0.005 nM and the final DMSO concentration per well was 0.3%. PBMCs were seeded at approximately 2×10^5 cells/well in the wells of the 96-well tissue culture plate in a total volume of 190 μL. The plate was incubated for 1 hour at 37° C. and 5% CO2. […] The cells were then cultured for 24 hours at 37° C. and 5% CO2. The supernatant was collected and CXCL10 levels were measured by ELISA.

CXCL10 = CXCL10 levels by ELISA in IFN-γ stimulated human peripheral blood mononuclear cells; format: cell-based; details: human PBMC
Experimental: The impact of Examples 23, 80, and 101 on IL-17A, IL-22, and CXCL10 levels was analyzed in cryopreserved human peripheral blood mononuclear cells (PBMC) by ELISA. […] For IL-17A and IL-22 assays, Examples 23, 80, and 101 were serially diluted from 10 mM in DMSO and further diluted in assay media to 100× the required final concentration, of which, 2 μL was added per well to a round-bottom 96-well tissue culture plate where the final DMSO concentration per well was 0.1%. CD2, CD3, and CD28 antibody-coated beads from the T-cell activation/expansion kit (Miltenyi Biotec) were added to the PBMC at a bead-to-cell ratio of 1:2.
The mixture of PBMCs and beads were seeded into the wells of the round-bottom 96-well plate at a concentration of 2×10^5 cells/well in a total volume of 200 μL. The cells were cultured for 72 hours at 37° C. and 5% CO2 and then supernatants were collected and IL-17A and IL-22 levels were measured by ELISA. For the CXCL10 assay, Examples 23, 80, and 101 were serially diluted from 10 mM in DMSO and further diluted in assay media to 100× the required final concentration, of which 2 μL was added per well to a 96-well tissue culture plate. The final compound concentration ranged from 30,000 nM to 0.005 nM and the final DMSO concentration per well was 0.3%. PBMCs were seeded at approximately 2×10^5 cells/well in the wells of the 96-well tissue culture plate in a total volume of 190 μL. The plate was incubated for 1 hour at 37° C. and 5% CO2. The cells were then stimulated with IFN-γ (15 ng/mL final concentration) in a volume of 10 μL. The cells were then cultured for 24 hours at 37° C. and 5% CO2. The supernatant was collected and CXCL10 levels were measured by ELISA.

[2] = Lewis, rat, plasma, po, 10 mg/kg, Lewis rats, 10 mg/kg, day 20, mean
[3] = Lewis, rat, plasma, po, 10 mg/kg, day 0, 10 mg/kg, Mean
[4] = Lewis, rat, plasma, po, 10 mg/kg, day 0, 10 mg/kg, per test subject
[5] = Lewis, rat, plasma, po, 10 mg/kg, day 20, 10 mg/kg, per test subject
[6] = day 0, 10 mg/kg, per test subject
[7] = day 20, 10 mg/kg, per test subject

## CNC(=O)c1[nH]c(C(=O)NC2CCC2)cc1O[C@@H](C)c1ccccc1 (stereo in doubt) [Example 101, N^5-cyclobutyl-N^2-methyl-3-(1-phenylethoxy)-1H-pyrrole-2,5-dicarboxamide]
[1]; [2]
  AUC(0-t): 10600 ng·h/mL
  half-life: 3.28 h
  MRT inf: 6.66 h
[1]; Lewis, rat, plasma, po, 10 mg/kg, Lewis rats, 10 mg/kg, day 20, mean, read-out: Cmax
  Cmax: 1710 ng/mL
[1]; Lewis, rat, plasma, po, 10 mg/kg, Lewis rats, 10 mg/kg, day 20, mean, read-out: Tmax
  Tmax: 0.67 h
[1]; [3]
  AUC(0-inf): 15400 ng·h/mL
  AUC(0-t): 15000 ng·h/mL
  half-life: 3.22 h
  MRT inf: 8.61 h
[1]; Lewis, rat, plasma, po, 10 mg/kg, day 0, 10 mg/kg, Mean, read-out: Cmax
  Cmax: 1980 ng/mL
[1]; Lewis, rat, plasma, po, 10 mg/kg, day 0, 10 mg/kg, Mean, read-out: Tmax
  Tmax: 7.3 h
[1]; [4]
  AUC(0-inf): 14300 ng·h/mL
  AUC(0-t): 14300 ng·h/mL
  MRT inf: 7.64 h
[1]; Lewis, rat, plasma, po, 10 mg/kg, day 0, 10 mg/kg, per test subject, read-out: Cmax
  Cmax: 1880 ng/mL
[1]; [5]
  AUC(0-inf): 8500 ng·h/mL
  AUC(0-t): 8420 ng·h/mL
  half-life: 3.46 h
  MRT inf: 6.09 h
[1]; Lewis, rat, plasma, po, 10 mg/kg, day 20, 10 mg/kg, per test subject, read-out: Cmax
  Cmax: 1660 ng/mL
[1]; Lewis, rat, plasma, po, 10 mg/kg, day 20, 10 mg/kg, per test subject, read-out: Tmax
  Tmax: 0.5 h
[1]; day 0, 10 mg/kg, 0.5 h, per test subject
  Plasma concentration: 673 ng/mL and 707 ng/mL
[1]; day 0, 10 mg/kg, 1 h, per test subject
  Plasma concentration: 1160 ng/mL and 1550 ng/mL
[1]; day 0, 10 mg/kg, 2 h, per test subject
  Plasma concentration: 997 ng/mL and 1610 ng/mL
[1]; day 0, 10 mg/kg, 4 h, per test subject
  Plasma concentration: 1060 ng/mL and 760 ng/mL
[1]; day 0, 10 mg/kg, 8 h, per test subject
  Plasma concentration: 107 ng/mL and 147 ng/mL
[1]; day 0, 10 mg/kg, 10 h, per test subject
  Plasma concentration: 2460 ng/mL and 1460 ng/mL
[1]; day 0, 10 mg/kg, 12 h, per test subject
  Plasma concentration: 968 ng/mL and 656 ng/mL
[1]; day 0, 10 mg/kg, 14 h, per test subject
  Plasma concentration: 525 ng/mL and 469 ng/mL
[1]; day 0, 10 mg/kg, Mean
  AUClast/D: 751 (ng·h/mL)/(mg/kg)
  AUC—% Extrap—obs: 2.29%
[1]; [6]
  AUCInf: 16528 ng·h/mL and 15290 ng·h/mL
  AUClast: 16397 ng·h/mL and 14408 ng·h/mL
  AUClast/D: 713 (ng·h/mL)/(mg/kg) and 820 (ng·h/mL)/(mg/kg) and 720 (ng·h/mL)/(mg/kg)
  AUC—% Extrap—obs: 0.307% and 0.788% and 5.77%
  Cmax: 2460 ng/mL and 1610 ng/mL
  MRTInf—obs: 8.69 h and 9.50 h
  Tmax: 10.0 h
[1]; day 20, 10 mg/kg, 0.25 h, per test subject
  Plasma concentration: 1400 ng/mL and 1570 ng/mL
[1]; day 20, 10 mg/kg, 0.5 h, per test subject
  Plasma concentration: 1550 ng/mL and 1730 ng/mL
[1]; day 20, 10 mg/kg, 1 h, per test subject
  Plasma concentration: 1730 ng/mL and 1590 ng/mL
[1]; day 20, 10 mg/kg, 2 h, per test subject
  Plasma concentration: 1260 ng/mL and 1320 ng/mL
[1]; day 20, 10 mg/kg, 4 h, per test subject
  Plasma concentration: 513 ng/mL and 518 ng/mL
[1]; day 20, 10 mg/kg, 10 h, per test subject
  Plasma concentration: 1710 ng/mL and 1460 ng/mL
[1]; day 20, 10 mg/kg, 12 h, per test subject
  Plasma concentration: 461 ng/mL and 498 ng/mL
[1]; [7]
  AUCInf: 11782 ng·h/mL and 11743 ng·h/mL
  AUClast: 11699 ng·h/mL and 11548 ng·h/mL
  AUClast/D: 421 (ng·h/mL)/(mg/kg) and 585 (ng·h/mL)/(mg/kg) and 577 (ng·h/mL)/(mg/kg)
  AUC—% Extrap—obs: 0.982% and 0.700% and 1.65%
  Cmax: 1730 ng/mL
  MRTInf—obs: 6.80 h and 7.09 h
  T1/2: 2.85 h and 3.54 h
  Tmax: 1.00 h and 0.500 h
BD 2
  EC50: 606 nM
IL-22; Test Subject 1, read-out: IL-22 IC50
  IC50: 14.8 nM
IL-22; Test Subject 2, read-out: IL-22 IC50
  IC50: 26.9 nM
IL-22; Test Subject 3, read-out: IL-22 IC50
  IC50: 21.1 nM
IL-22; mean of test subjects, read-out: IL-22 IC50 Mean
  IC50: 20.9 nM
IL-22; human PBMC, 72 hours
  IC50 for IL-22 relative to GSK620: substantially lower IC50
IL-22; human PBMC, from mean IC50
  Biomarker selectivity (IL-22 vs. CXCL10): >1433 Fold
CXCL10
  selectivity to induction of CXCL10 relative to IL-17A and IL-22: showed selectivity to induction of CXCL10 relative to IL-17A and IL-22
CXCL10; IFN-γ, 24 hours
  IC50 for CXCL-10 relative to GSK620: substantially lower IC50
CXCL10; Test Subject 1, read-out: CXCL10 IC50
  IC50: > 30000 nM
CXCL10; Test Subject 2, read-out: CXCL10 IC50
  IC50: > 30000 nM
CXCL10; Test Subject 3, read-out: CXCL10 IC50
  IC50: > 30000 nM
CXCL10; mean of test subjects, read-out: CXCL10 IC50 Mean
  IC50: > 30000 nM

Source: US20250263370A1 (Tay Therapeutics Limited, priority 2022, published 2025)
